Tests used:
CYP3A [1] = test: Direct inhibition of CYP3A-mediated MDZ 1'-hydroxylation activity in human liver microsomes; type: in vitro ADME; conditions: HLM, 10 µM MDZ; 5,7-DMF 0.03-30 µM, 3,5,7,3',4'-PMF 0.02-20 µM, no pre-incubation
Method: An in vitro study was carried out to investigate the inhibitory effects of KP extract, 5,7-DMF, and 3,5,7,3’,4’-PMF on CYP3A-mediated MDZ 1’-hydroxylation (MDZ 1’-OH) activity.
The reaction mixtures, each with a total volume of 200 µL, consisting of 100 µg pooled HLM, 10 µM MDZ, and a nicotinamide adenine dinucleotide phosphate (NADPH)-generating system (1 mM NADPH, 8 mM glucose 6-phosphate, and 0.5U glucose 6-phosphate dehydrogenase) in 80 mM phosphate buffer (pH 7.4), were incubated at 37°C for 5 min in the presence of KP extract (40-80 µg/ml), 5,7-DMF (0.03-30 µM), or 3,5,7,3’,4’-PMF (0.02-20 µM). […] After centrifugation at 20,800 × g for 10 min at 4°C, the supernatant was injected into an HPLC apparatus equipped with a CAPCELLPAK C18 SG120 column (4.6 mm × 250 mm, Shiseido) and 1’-hydroxymidazolam was analyzed according to a previous report[20]^,[21]^). Control activity was determined under the same conditions with a reaction mixture containing water, 1% methanol, or 1% acetonitrile instead of KP extract, 5,7-DMF, or 3,5,7,3’,4’-PMF. Results were expressed as a percentage of each control activity. The inhibition mode and inhibition constant (Ki) values of KP extract on MDZ 1’-OH activity were calculated using nonlinear regression analysis using GraphPad Prism 7.03 (GraphPad Software Inc., La Jolla, CA, USA).

CYP3A [2] = test: Pre-incubation study (time-dependent / mechanism-based inhibition) of MDZ 1'-OH activity in human liver microsomes; type: in vitro ADME; conditions: for Change of MDZ 1'-OH activity after pre-incubation: HLM, pre-incubation 0-30 min with or without NADPH, KP extract 120 µg/ml, 5,7-DMF 30 µM, 3,5,7,3',4'-PMF 20 µM; for KI (inactivation) / kinact / kinact/KI: human, human liver microsomes, probe midazolam (MDZ) 10 µM, 1'-hydroxylation, HLM + NADPH, 10-fold dilution; for KI (inactivation): pre-incubation 5-30 min, read-out: KI (inhibitor concentration causing half-maximal inactivation); for kinact / kinact/KI: pre-incubation; for kinact: read-out: kinact (maximal inactivation rate constant) (converted); for kinact/KI: read-out: kinact/KI (efficiency of inactivation) (converted)
Method: Pre-incubation studies were performed to determine whether the metabolic intermediates produced by KP ingredients cause an MBI that inactivates CYP3A. KP extract (120 µg/ml), 5,7-DMF (30 µM), or 3,5,7,3’,4’-PMF (20 µM) was pre-incubated with HLM at 37°C for 10, 20, or 30 min, in the presence or absence of a NADPH-generating system. After the pre-incubation step, MDZ was added, and MDZ 1’-OH activity was assayed as described above.
In addition, another assay was designed to minimize the direct inhibition of CYP3A by KP ingredients by diluting the contents of the inactivation mixture 10-fold. As a primary incubation mixture, KP extract (30-120 µg/ml), 5,7-DMF (6-30 µM), or 3,5,7,3’,4’-PMF (5-20 µM) were pre-incubated in the presence of HLM and a NADPH-generating system at 37°C. Pre-incubation times were 5, 10, 15, or 20 min for KP extract, and 5, 10, 20, or 30 min for 5,7-DMF and 3,5,7,3’,4’-PMF. At determined time points, an aliquot of 50 µL of the primary reaction mixture was moved to 450 µL of the secondary incubation mixture containing 10 µM MDZ, and further incubated for 5 min. The oxidation of MDZ was analyzed as described above.
The decrease in the natural logarithm of the % residual MDZ 1’-OH activity against pre-incubation time was plotted for each inhibitor concentration, and the apparent inactivation rate constant (Kobs) values were described as the negative slopes of the lines. The maximal inactivation rate constant (kinact) and the inhibitor concentration causing half-maximal inactivation (KI) were estimated by double-reciprocal plot of the Kobs against the inhibitor concentration. The efficiency of inactivation was calculated as the ratio of kinact to KI.

CYP3A4 = tested on: CYP3A4; parameters: method as in PMID 17709371; conditions: HLM and recombinant microsomes; cited from earlier work
CYP3A [3] = tested on: CYP3A; parameters: method as in PMID 29550915; conditions: mice, 5,7-DMF for ten days; cited from earlier work

| Structure (SMILES) | Direct inhibition of MDZ 1'-OH activity (CYP3A [1]) | Change of MDZ 1'-OH activity after pre-incubation (CYP3A [2]) | KI (inactivation) (CYP3A [2]) [µM] | kinact (CYP3A [2]) [s⁻¹] | kinact/KI (CYP3A [2]) [M⁻¹ s⁻¹] | Metabolizing CYP enzymes (CYP3A4) | AUC of MDZ (CYP3A [3]) | Elimination half-life (t1/2) of MDZ (CYP3A [3]) | Hepatic CYP3A expression (CYP3A [3]) |
| --- | --- | --- | --- | --- | --- | --- | --- | --- | --- |
| COc1cc(OC)c2c(=O)c(OC)c(-c3ccc(OC)c(OC)c3)oc2c1 [3,5,7,3’,4’-PMF, 3,5,7,3’,4’-pentamethoxyflavone] | did not inhibit | time- and NADPH-dependent decrease | 25.5 | 2.67e-05 | 1.05 |  |  |  |  |
| COc1cc(OC)c2c(=O)cc(-c3ccccc3)oc2c1 [5,7-DMF, 5,7-dimethoxyflavone] | did not inhibit | time- and NADPH-dependent decrease | 10.7 | 0.000433 | 40 | not metabolized by CYP3A4, but by CYP1A1 and CYP1A2 | increased | increased | decreased |

Reference: paper PMC9008879, “Inhibition of CYP3A-mediated Midazolam Metabolism by Kaempferia Parviflora” (Food Safety, 2022)
